Experimental data: patent US11414438B2, “Silylethynyl hetaryl compounds as nitrification inhibitors” (BASF SE, priority 2018, dated 2022)
One block for each compound: values may come before it.

Columns and labels:
[1] = tested on: nitrification; test: inhibition of nitrification in soil incubation (ammonium and nitrate content after 14 days); details: 20° C., 10 mg ammoniumsulfate-N; for NI @ 0.1%: compound at 0.1% of nitrogen N; for NI @ 0.3%: compound at 0.3% of nitrogen N; for NI @ 3%: compound at 3% of nitrogen N; for NI @ 1%: compound at 1% of nitrogen N
Protocol: The compounds of the invention have been tested as follows in terms of the inhibition of nitrification:
100 g soil is filled into 500 ml plastic bottles (e.g. soil sampled from the field) and is moistened to 50% water holding capacity. The soil is incubated at 20° C. for two weeks to activate the microbial biomass. 1 ml test solution, containing the compound in the appropriate concentration (usually 0.3 or 1% of nitrogen N), or DMSO and 10 mg nitrogen in the form of ammoniumsulfate-N is added to the soil and everything mixed well. Bottles are capped but loosely to allow air exchange. The bottles are then incubated at 20° C. for 0 and 14 days.
For analysis 300 ml of a 1% K2SO4-solution is added to the bottle containing the soil and shaken for 2 hours in a horizontal shaker at 150 rpm. Then the whole solution is filtered through a filter (Macherey-Nagel Filter MN 807¼). Ammonium and nitrate content is then analyzed in the filtrate in an autoanalyzer at 550 nm (Merck, AA11).
The inhibition (NI @ a specified concentration) is calculated as follows: […]

[2] = volatility: weight loss from open vials in the hood; assay type: physicochemical; details: 251 mg in 10 ml vials open in the hood
Protocol: The compounds of the invention have been tested in terms of their volatility. 251 mg of the compounds were provided in 10 ml vials open in the hood and tested in comparison to 5-chloro-2-ethynyl pyridine (Ref.-1). The weight loss was determined after 1 week.

SMILES: C[Si](C)(C)C#Cc1ccccn1 [No. 1]
NI @ 0.1% [1]: 54 | NI @ 0.3% [1]: 77 | NI @ 3% [1]: 86

SMILES: C[SiH](C)C#Cc1ccccn1 [No. 2]
NI @ 0.3% [1]: 82 | NI @ 1% [1]: 94

SMILES: C[Si](C)(C#Cc1ccccn1)CCl.Cl [No. 3]
NI @ 0.3% [1]: 80 | NI @ 1% [1]: 91

SMILES: CC(C)(C)[Si](C)(C)C#Cc1ccccn1 [No. 4]
NI @ 0.3% [1]: 11 | NI @ 1% [1]: 28

SMILES: C[Si](C)(C#Cc1ccccn1)O[Si](C)(C)C#Cc1ccccn1 [No. 5]
NI @ 0.3% [1]: 78 | NI @ 1% [1]: 83

SMILES: C[Si](C)(C#Cc1ccccn1)O[Si](C)(C)O[Si](C)(C)C#Cc1ccccn1 [No. 6]
NI @ 0.3% [1]: 51 | NI @ 1% [1]: 75

SMILES: C[Si](C)(C#Cc1ccccn1)O[Si](C)(C)O[Si](C)(C)O[Si](C)(C)C#Cc1ccccn1 [No. 7]
NI @ 0.3% [1]: 31 | NI @ 1% [1]: 63

SMILES: C[Si](C)(C#Cc1ccccn1)C[Si](C)(C)C#Cc1ccccn1 [No. 8]
NI @ 0.3% [1]: 16 | NI @ 1% [1]: 43

SMILES: C[Si](C)(C#Cc1ccccn1)c1ccccc1 [No. 9]
NI @ 0.3% [1]: 83 | NI @ 1% [1]: 80

% weight loss after 1 week [2]: 8%
SMILES: C[Si](C)(C)C#Cc1ccc(Cl)cn1 [No. 10]
NI @ 0.1% [1]: 61 | NI @ 0.3% [1]: 75 | NI @ 3% [1]: 85

SMILES: Cc1ccc(C#C[Si](C)(C)C)nc1 [No. 11]
NI @ 0.3% [1]: 63 | NI @ 1% [1]: 77

% weight loss after 1 week [2]: 24%
SMILES: C[Si](C)(C)C#Cc1cnccn1 [No. 12]
NI @ 0.1% [1]: 71 | NI @ 0.3% [1]: 98

% weight loss after 1 week [2]: 53%
SMILES: C#Cc1ccc(Cl)cn1 [Ref.-1, 5-chloro-2-ethynyl pyridine, reference compound]
